Patent US7659306B2, “Method of increasing gastric emptying” (The Board of Regents of the University of Texas System, priority 2004, dated 2010)
“Also recorded” adds a separate entry of the source. Like-named read-outs stand apart in the source and are kept apart here.

Assays:
[1] = molecular target: T1, dopamine 3 receptor (D3R) (Rattus norvegicus, UniProt P19020); settings: adult male Sprague-Dawley rats, dopamine 1 mg/kg i.p. plus nafadotride 0.1 or 1 mg/kg i.p., 20 minutes after meal
Procedure: Gastric emptying was assessed in adult male Sprague-Dawley rats by the phenol red method. […] Control rats received vehicle (PBS).
A solution of 50 mg phenol red in 100 ml aqueous methylcellulose (1.5%) was used as a test meal. Methylcellulose (1.5 g, 400 centipoises) was dispersed in 100 ml of hot water (80° C.) under continuous shaking. The solution was allowed to cool to 35° C., and then phenol red was added. Intensity and duration (5 hr) of agitation were kept constant to obtain solutions of reproducible viscosity.
Conscious rats were fed the 0.05% phenol red methylcellulose solution and euthanized after 20 minutes. The stomach was clamped at the pylorus and cardiac ends before removal. The stomach and its contents were homogenized with 100 ml of 0.1N NaOH. A baseline control for each phenol red solution preparation was used by mixing 1.5 ml with 100 ml of 0.1N NaOH. The mixture was then kept for 1 hr at room temperature: 5 ml of the supernatant was added to 0.5 ml of trichloroacetic acid solution (20% w/v) to precipitate the proteins. […] The solutions were then read with a spectrophotometer at a wavelength of 560 nm.
Gastric emptying (G.E.) for each rat was calculated according to the following formula: (1−Absorbance of test sample)/(Absorbance of baseline control)×100%. Values were expressed as mean±SEM. […]

[2] = molecular target: T1, dopamine 3 receptor (D3R); test: Gastric emptying test (phenol red method) after i.p. D3R agonist; type: in vivo; design: from tissue; host or cells: whole animal, adult male Sprague-Dawley rat (gastrointestinal tract); settings: adult male Sprague-Dawley rats, 1 mg/kg i.p., 20 minutes after phenol red methylcellulose meal, mean±SEM, vehicle 78±4.86%, hydrochloride
Procedure: Values were expressed as mean±SEM.
Adult male Sprague-Dawley rats (weighing 200-250 g) were deprived of food 18 hr prior to experiments but allowed free access to water. The animals were intraperitoneally injected with a dopamine 3 receptor agonist, PD 128907 hydrochloride, at 1 mg/kg or with physiological saline (control) before administration by oral tube of 1.5 ml of pre-warmed (35° C.) 0.05% phenol red solution.

[3] = molecular target: T1, dopamine 3 receptor (D3R); test: Electric field stimulation induced relaxation of pyloric strips in an organ bath; design: from tissue; host or cells: whole animal, adult male Sprague-Dawley rat (gastrointestinal tract); settings: pyloric strips of adult male Sprague-Dawley rats, agonist 0.1-10 µM, dose dependent, hydrochloride
Procedure: The pyloric function was assessed by measuring the relaxation of pyloric strips in an organ bath in response to electric field stimulation in the presence of D3R agonist ranging from 0.1-10 µM (1 µM vs control, P<0.05; 10 μM vs control, P=0.001).
Pyloric function was assessed in an organ bath by measuring the relaxation of pyloric strips of adult male Sprague-Dawley rats in the presence of the dopamine 3 receptor agonist, PD 128907 hydrochloride.

T1 sequence (P19020 whole entry): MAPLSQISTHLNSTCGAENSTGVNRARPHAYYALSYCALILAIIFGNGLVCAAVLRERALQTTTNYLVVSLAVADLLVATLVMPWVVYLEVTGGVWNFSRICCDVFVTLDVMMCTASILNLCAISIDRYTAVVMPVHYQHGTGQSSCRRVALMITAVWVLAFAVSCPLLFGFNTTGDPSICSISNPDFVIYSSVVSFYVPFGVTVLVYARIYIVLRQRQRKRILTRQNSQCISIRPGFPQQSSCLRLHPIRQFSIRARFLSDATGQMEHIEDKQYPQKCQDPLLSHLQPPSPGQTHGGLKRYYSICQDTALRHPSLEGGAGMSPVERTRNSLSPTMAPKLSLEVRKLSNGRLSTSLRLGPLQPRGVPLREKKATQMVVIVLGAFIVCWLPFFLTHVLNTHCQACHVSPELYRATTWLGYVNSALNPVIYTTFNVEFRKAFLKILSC

SMILES	reversal of the effect of dopamine on gastric emptying [1]	reversal of the effect of dopamine on gastric emptying ([1]; listed as Nafadotride)	gastric emptying [2] [%]	gastric emptying ([2]; listed as D3R agonist) [%]	electric field stimulation induced relaxation of pyloric strips [3]
CCCCN1CCCC1CNC(=O)c1cc(C#N)c2ccccc2c1OC (centres unmarked) [nafadotride]	partial reversal of the effect of dopamine on gastric emptying	partially reverse the effect of dopamine	–	–	–
CCCN1CCO[C@@H]2c3cc(O)ccc3OC[C@H]21.Cl [PD 128907 hydrochloride]	–	–	44	44±8.26	reduced electric field stimulation induced relaxation of pyloric strips; also recorded: significant reduction in electric field stimulation induced relaxation of pyloric strips
